Results taken from US20250346550A1, “METHODS OF MODULATING ENDONUCLEASE G USING RESVERATROL AND ITS DERIVATIVES” (THE REGENTS OF THE UNIVERSITY OF COLORADO A BODY CORPORATE, priority 2022, published 2025).

Key:
[1] = system: PME defect of cps-6(tm3222) embryos; assay: PME microscopy assay in cps-6(tm3222) crosses; format: in vivo, C. elegans; details: 64-cell embryos, scored as in FIG. 1a (FIG. 6b); DMSO control average of 17 clusters
Procedure: (§1) The numbers of MTR-stained paternal mitochondrial clusters in embryos at 64-cell (a) or 16-cell (b) stage from the indicated crosses were scored. N2 males or hermaphrodites were pretreated with 0.25% ethanol (Mock), 50 μM cis-resveratrol (a), or 50 μM trans-resveratrol (b) as indicated before mating. c-g, Quantification of MTR-stained paternal mitochondrial clusters in 64-cell embryos from the indicated crosses treated with 0.25% ethanol (Mock), 50 μM cis-resveratrol, and 50 μM trans-resveratrol, respectively. Alleles used are lgg-1(bp523), cps-6(tm3222) and rad-23(tm2595).
(§2) The numbers of MTR-stained paternal mitochondrial clusters were scored as in FIG. 1a. cps-6(tm3222) and lgg-1(bp523) alleles were used in the assays. Data are mean±s.e.m. n=20 embryos (b) and 15 embryos (c) in each experiment. **P<0.01; ***P<0.001; n.s., not significant, two-sided, unpaired t-test.
(§3) To investigate how these six compounds might affect PME, the present inventors performed chemical genetic analysis to analyze the PME pathways that might be affected by the compounds. The present inventors first examined whether they might affect the paternal PME pathway mediated by the mitochondrial endonuclease CPS-6, whose activity is inhibited by oxidation and protected by reducing agents.

[2] = system: PME defect of lgg-1(bp523) embryos (autophagy pathway); assay: PME microscopy assay in lgg-1(bp523) crosses; format: in vivo, C. elegans; details: FIG. 6c
Procedure: as §1, §2, §3

[3] = system: paternal mitochondrial elimination (PME) in C. elegans wild-type (N2) cross-fertilized embryos; assay: PME fluorescent microscopy assay (MTR-stained paternal mitochondrial clusters), N2 males x N2 hermaphrodites; format: in vivo; details: compound 100 μM, 64-cell stage embryos (FIG. 1a)
Procedure: FIG. 1. […] The numbers of MTR-stained paternal mitochondrial clusters in 64-cell cross-fertilized embryos from mating of MTR-stained N2 males with N2 hermaphrodites in the presence of the indicated compounds (100 μM) were scored. n≥15 embryos for each compound. b, d-g, Quantification of MTR-stained paternal mitochondrial clusters in 64-cell stage embryos (b, d-f) or in embryos at the indicated stage (g) from the cross between MTR-stained N2 males and N2 hermaphrodites, in the presence of 0.25% ethanol (Mock) or 50 μM of the indicated compound. In each experiment, n>40 embryos (b,d,e), n=20 embryos (f), and n≥10 embryos (g) were scored, respectively. […] Data are mean±s.e.m. **P<0.01, ***P<0.001; n.s., not significant, two-sided, unpaired t-test.
FIG. 7. Effects of different dosages of resveratrol isomers on PME. a, b, The effects of different dosages of cis-resveratrol (a) and trans-resveratrol (b) on PME. The numbers of MTR-stained paternal mitochondrial clusters in 64-cell embryos (a) or 16-cell embryos (b) from mating of MTR-stained N2 males with N2 hermaphrodites in the presence of the indicated concentrations of resveratrol isomers were scored. […] N2 hermaphrodites and MTR-stained uaDf5/+ males were mated as indicated in the presence of 0.25% ethanol (Mock, d), 50 μM trans-resveratrol (e), or 50 μM cis-resveratrol (f). Males also carried smIs42, an integrated Psur-5sur-5::gfp transgene, which directs GFP expression in all somatic cells in most developmental stages, and was used to track cross progeny. A single cross-fertilized embryo or larva (MTR- or GFP-positive) at the indicated stage was analyzed by PCR. uaDf5/+ and N2 hermaphrodites were controls.
FIG. 12. […] Quantification of MTR-stained paternal mitochondrial clusters at the indicated embryonic stages from the cross between MTR-stained N2 males and N2 hermaphrodites, in the presence of 0.25% ethanol (Mock) or 50 μM of the indicated compound. In each experiment, n≥10 embryos embryos. Data are mean±s.e.m. **P<0.01, ***P<0.001; n.s., not significant, two-sided, unpaired t-test.
Following fertilization, paternal mitochondria are rapidly depolarized and damaged in fertilized eggs, which could generate and release reactive oxygen species (ROS) that affect PME and embryo development. We thus screened twelve small molecules derived from natural products that have been used as antioxidants for the potential activity in modulating PME (FIG. 6a), using a fluorescent microscopy assay. In this assay, C. elegans wild-type (N2) males prestained with Mitotracker Red (MTR), a mitochondrion-specific fluorescent dye, were mated with unstained N2 hermaphrodites in the presence of the compound of interest ([…]) and the cross-fertilized embryos were examined for the presence of MTR-stained paternal mitochondria or mitochondrial clusters.

## O=c1cc(-c2ccc(O)cc2)oc2cc(O)cc(O)c12 [apigenin]
[1]
  effect on PME defect of cps-6(tm3222) embryos, screen compounds: significantly increased the number of paternal mitochondrial clusters
[2]
  enhancement of the PME defect in lgg-1 deficient embryos, screen compounds: enhanced the PME defect

## O=C1O[C@H]([C@@H](O)CO)C(O)=C1O [ascorbic acid, reference compound]
[3]
  effect on PME in the screen: did not inhibit PME

## CC1=C(/C=C/C(C)=C/C=C/C(C)=C/C=C/C=C(C)/C=C/C=C(C)/C=C/C2=C(C)C(=O)[C@@H](O)CC2(C)C)C(C)(C)C[C@H](O)C1=O [astaxanthin, reference compound]
[3]
  effect on PME in the screen: did not inhibit PME

## C[n+]1ccc(-c2cc[n+](C)cc2)cc1 [paraquat, reference compound]
[3]
  effect on PME in the screen: inhibited PME

## O=C(OC[C@H]1O[C@@H](OC(=O)c2cc(O)c(O)c(OC(=O)c3cc(O)c(O)c(O)c3)c2)[C@H](OC(=O)c2cc(O)c(O)c(OC(=O)c3cc(O)c(O)c(O)c3)c2)[C@@H](OC(=O)c2cc(O)c(O)c(OC(=O)c3cc(O)c(O)c(O)c3)c2)[C@@H]1OC(=O)c1cc(O)c(O)c(OC(=O)c2cc(O)c(O)c(O)c2)c1)c1cc(O)c(O)c(OC(=O)c2cc(O)c(O)c(O)c2)c1 [tannic acid, reference compound]
[3]
  effect on PME in the screen: did not inhibit PME

## O=c1c(O)c(-c2ccc(O)c(O)c2)oc2cc(O)cc(O)c12 [quercetin]
[1]
  effect on PME defect of cps-6(tm3222) embryos, screen compounds: significantly increased the number of paternal mitochondrial clusters

## CC(CC(=O)C[C@@H](C)[C@H]1CC(=O)[C@@]2(C)C3=C(C(=O)C[C@]12C)[C@@]1(C)CC[C@H](O)C(C)(C)[C@@H]1C[C@@H]3O)C(=O)O (stereo partly drawn) [ganoderic acid B]
[1]
  effect on PME defect of cps-6(tm3222) embryos, screen compounds: significantly increased the number of paternal mitochondrial clusters
[2]
  enhancement of the PME defect in lgg-1 deficient embryos, screen compounds: enhanced the PME defect

## Nc1nc2ncc(CNc3ccc(C(=O)N[C@@H](CCC(=O)O)C(=O)O)cc3)nc2c(=O)[nH]1 [folic acid, reference compound]
[3]
  effect on PME in the screen: did not inhibit PME

## Oc1cc(O)c2c(c1)O[C@H](c1ccc(O)c(O)c1)[C@@H](O)C2 [catechinic acid, reference compound]
[3]
  effect on PME in the screen: did not inhibit PME

## O=c1cc(-c2ccccc2)oc2cc(O)c(O)c(O)c12 [baicalein]
[1]
  effect on PME defect of cps-6(tm3222) embryos, screen compounds: significantly increased the number of paternal mitochondrial clusters
[2]
  enhancement of the PME defect in lgg-1 deficient embryos, screen compounds: not

## N[C@@H](CCC(=O)N[C@@H](CS)C(=O)NCC(=O)O)C(=O)O [glutathione, reference compound]
[3]
  effect on PME in the screen: did not inhibit PME

## COc1cc(/C=C/C(=O)CC(=O)/C=C/c2ccc(O)c(OC)c2)ccc1O [curcumin]
[1]
  effect on PME defect of cps-6(tm3222) embryos, screen compounds: significantly increased the number of paternal mitochondrial clusters
